Experimental data from patent publication US12441733B2, “Substituted 2,4-dioxotetrahydropyrimidines as intermediates in the synthesis of bruton's tyrosine kinase inhibitors” (Novartis AG, priority 2018, dated 2025).

Biological target: T1, BTK-GFP (Homo sapiens, UniProt Q06187+Q96SW2)
T1 construct: expressed in transfected cells; host or cells: HEK293A (Invitrogen R70507), lentiviral transduction with pLenti6-BTK-GFP-Ires-RFP, blasticidin selection
Assay: BTK-GFP protein abundance flow cytometry assay in HEK293A cells
Type: cell-based
Settings: HEK293A BTK-GFP-iresRFP cells, 24 h; for DC50: GFP signal by flow cytometry, concentration at which 50% maximal degradation was observed; for BTK deg Amax: % protein remaining at the concentration at which maximum degradation is seen
In short: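 HEK293A cells stably expressing bicistronic BTK-GFP-IRES-RFP (C-terminal GFP tag) via lentiviral vector. Degradation read by flow cytometry as loss of GFP signal after degrader treatment. DC50 is concentration giving 50% maximal degradation; Amax is % protein remaining at maximal degradation.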

T1 sequence (Q06187 whole entry): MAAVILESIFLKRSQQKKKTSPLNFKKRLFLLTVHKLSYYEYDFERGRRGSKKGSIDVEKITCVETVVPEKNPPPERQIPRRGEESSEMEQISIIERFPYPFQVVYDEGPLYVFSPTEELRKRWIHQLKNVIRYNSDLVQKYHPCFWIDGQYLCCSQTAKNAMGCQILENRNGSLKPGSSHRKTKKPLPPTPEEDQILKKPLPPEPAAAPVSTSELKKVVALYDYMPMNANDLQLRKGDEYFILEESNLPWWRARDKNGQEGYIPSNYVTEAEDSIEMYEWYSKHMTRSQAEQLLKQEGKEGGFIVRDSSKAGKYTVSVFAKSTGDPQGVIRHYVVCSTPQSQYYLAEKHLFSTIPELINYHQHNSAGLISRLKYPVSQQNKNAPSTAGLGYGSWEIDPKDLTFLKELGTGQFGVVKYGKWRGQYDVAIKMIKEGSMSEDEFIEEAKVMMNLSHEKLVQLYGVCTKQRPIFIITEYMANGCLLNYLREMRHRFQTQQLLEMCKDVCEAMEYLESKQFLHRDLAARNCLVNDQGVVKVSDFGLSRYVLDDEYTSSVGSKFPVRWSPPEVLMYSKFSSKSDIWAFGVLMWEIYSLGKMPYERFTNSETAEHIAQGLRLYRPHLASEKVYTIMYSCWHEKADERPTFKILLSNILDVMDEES
T1 sequence (Q96SW2 whole entry): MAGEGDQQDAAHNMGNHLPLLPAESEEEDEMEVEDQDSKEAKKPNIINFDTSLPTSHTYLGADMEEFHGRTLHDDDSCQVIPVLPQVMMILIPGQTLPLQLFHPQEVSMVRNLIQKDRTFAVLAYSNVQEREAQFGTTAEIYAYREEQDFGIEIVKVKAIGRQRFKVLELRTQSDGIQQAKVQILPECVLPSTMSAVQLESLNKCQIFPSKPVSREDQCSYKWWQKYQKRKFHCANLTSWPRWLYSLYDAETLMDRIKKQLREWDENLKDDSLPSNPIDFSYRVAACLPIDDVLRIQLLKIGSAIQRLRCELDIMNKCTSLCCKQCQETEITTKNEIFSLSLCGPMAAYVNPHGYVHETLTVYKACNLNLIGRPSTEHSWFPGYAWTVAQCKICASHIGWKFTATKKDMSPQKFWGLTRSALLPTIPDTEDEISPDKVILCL
T1 sequence (Q16531 whole entry partner): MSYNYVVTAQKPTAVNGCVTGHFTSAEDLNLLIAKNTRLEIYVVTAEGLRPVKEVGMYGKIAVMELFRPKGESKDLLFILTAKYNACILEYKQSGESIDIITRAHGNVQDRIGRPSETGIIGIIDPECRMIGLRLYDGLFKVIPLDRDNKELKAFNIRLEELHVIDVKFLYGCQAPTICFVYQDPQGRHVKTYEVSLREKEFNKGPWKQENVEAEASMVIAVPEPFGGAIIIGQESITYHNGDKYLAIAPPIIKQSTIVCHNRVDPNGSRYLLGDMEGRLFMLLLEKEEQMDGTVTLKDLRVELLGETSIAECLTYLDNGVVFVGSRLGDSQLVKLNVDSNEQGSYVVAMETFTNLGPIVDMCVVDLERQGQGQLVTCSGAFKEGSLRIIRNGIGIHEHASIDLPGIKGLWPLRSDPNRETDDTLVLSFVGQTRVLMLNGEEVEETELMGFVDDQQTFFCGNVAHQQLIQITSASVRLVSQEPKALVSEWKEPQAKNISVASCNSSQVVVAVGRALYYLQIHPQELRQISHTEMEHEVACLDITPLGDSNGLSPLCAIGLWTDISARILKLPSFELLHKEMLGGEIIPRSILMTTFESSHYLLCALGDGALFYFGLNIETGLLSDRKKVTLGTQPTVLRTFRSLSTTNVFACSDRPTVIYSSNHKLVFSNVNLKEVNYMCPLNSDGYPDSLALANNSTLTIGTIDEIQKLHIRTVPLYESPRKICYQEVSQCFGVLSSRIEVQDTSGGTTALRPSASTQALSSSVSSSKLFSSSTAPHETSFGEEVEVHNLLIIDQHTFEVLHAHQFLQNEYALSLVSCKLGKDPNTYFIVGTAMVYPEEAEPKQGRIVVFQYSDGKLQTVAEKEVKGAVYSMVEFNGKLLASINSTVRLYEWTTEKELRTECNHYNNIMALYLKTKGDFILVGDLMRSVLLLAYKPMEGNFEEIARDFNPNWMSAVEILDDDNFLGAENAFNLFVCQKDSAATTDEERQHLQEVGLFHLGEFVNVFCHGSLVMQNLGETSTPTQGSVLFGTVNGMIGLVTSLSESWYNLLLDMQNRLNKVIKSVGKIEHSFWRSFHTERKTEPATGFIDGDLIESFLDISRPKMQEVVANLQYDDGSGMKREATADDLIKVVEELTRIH

DC50	BTK deg Amax	SMILES
2.1 nM	4.5%	COc1ccc(C(=O)N2CCC3(CCN(Cc4ccc(-c5cc6c(-c7cc(F)cc(NC(=O)c8ccc(C(C)(C)O)cc8F)c7C)ncnc6[nH]5)cc4)CC3)CC2)cc1N1CCC(=O)NC1=O [Compound 9, N-(3-(6-(4-((9-(3-(2,4-Dioxotetrahydropyrimidin-1(2H)-yl)-4-methoxybenzoyl)-3,9-diazaspiro[5.5]undecan-3-yl)methyl)phenyl)-7H-pyrrolo[2.3-d]pyrimidin-4-yl)-5-fluoro-2-methylphenyl)-2-fluoro-4-(2-hydroxypropan-2-yl)benzamide]
29.9 nM	40.6%	Cc1c(NC(=O)c2ccc(C(C)(C)O)cc2F)cc(F)cc1-c1ncnc2[nH]c(-c3ccc(CCN4CCC5(CC4)CCN(C(=O)c4cccc(N6CCC(=O)NC6=O)c4)CC5)cc3)cc12 [Compound 12, N-(3-(6-(4-(2-(9-(3-(2,4-Dioxotetrahydropyrimidin-1(2H)-yl)benzoyl)-3,9-diazaspiro[5,5]undecan-3-yl)ethyl)phenyl)-7H-pyrrolo[2,3-d]pyrimidin-4-yl)-5-fluoro-2-methylphenyl)-2-fluoro-4-(2-hydroxypropan-2-yl)benzamide]
3.7 nM	7.8%	CCOc1ccc(C(=O)N2CCC3(CCN(Cc4ccc(-c5cc6c(-c7cc(F)cc(NC(=O)c8ccc(C(C)(C)O)cc8F)c7C)ncnc6[nH]5)cc4)CC3)CC2)cc1N1CCC(=O)NC1=O [Compound 4, N-(3-(6-(4-((9-(3-(2,4-Dioxotetrahydropyrimidin-1(2H)-yl)-4-ethoxybenzoyl)-3,9-diazaspiro[5.5]undecan-3-yl)methyl)phenyl)-7H-pyrrolo[2,3-d]pyrimidin-4-yl)-5-fluoro-2-methylphenyl)-2-fluoro-4-(2-hydroxypropan-2-yl)benzamide]
47.1 nM	5.4%	Cc1ccc(C(=O)N(C)CCCCCNCc2ccc(-c3cc4c(-c5cc(F)cc(NC(=O)c6ccc(C(C)(C)O)cc6F)c5C)ncnc4[nH]3)cc2)cc1N1CCC(=O)NC1=O [Compound 30, 3-(2,4-Dioxotetrahydropyrimidin-1(2H)-yl)-N-(5-((4-(4-(5-fluoro-3-(2-fluoro-4-(2-hydroxypropan-2-yl)benzamido)-2-methylphenyl)-7H-pyrrolo[2,3-d]pyrimidin-6-yl)benzyl)amino)pentyl)-N,4-dimethylbenzamide]
1.5 nM	4.1%	Cc1ccc(C(=O)N2CCC3(CCN(Cc4ccc(-c5cc6c(-c7cc(F)cc(NC(=O)c8ccc(C(C)(C)O)cc8F)c7C)ncnc6[nH]5)cc4)CC3)CC2)cc1N1CCC(=O)NC1=O [Compound 27, N-(3-(6-(4-((9-(3-(2,4-Dioxotetrahydropyrimidin-1(2H)-yl)-4-methylbenzoyl)-3,9-diazaspiro[5.5]undecan-3-yl)methyl)phenyl)-7H-pyrrolo[2,3-d]pyrimidin-4-yl)-5-fluoro-2-methylphenyl)-2-fluoro-4-(2-hydroxypropan-2-yl)benzamide]
1 nM	3.1%	Cc1ccc(C(=O)N2CCC3(CCN(CCc4ccc(-c5cc6c(-c7cc(F)cc(NC(=O)c8ccc(C(C)(C)O)cc8F)c7C)ncnc6[nH]5)cc4)CC3)CC2)cc1N1CCC(=O)NC1=O [Compound 5, N-(3-(6-(4-(2-(9-(3-(2,4-Dioxotetrahydropyrimidin-1(2H)-yl)-4-methylbenzoyl)-3,9-diazaspiro[5.5]undecan-3-yl)ethyl)phenyl)-7H-pyrrolo[2,3-d]pyrimidin-4-yl)-5-fluoro-2-methylphenyl)-2-fluoro-4-(2-hydroxypropan-2-yl)benzamide]
19.9 nM	3.1%	Cc1cc(F)c(C(=O)NCCCCCNCc2ccc(-c3cc4c(-c5cc(F)cc(NC(=O)c6ccc(C(C)(C)O)cc6F)c5C)ncnc4[nH]3)cc2)cc1N1CCC(=O)NC1=O [Compound 29, 5-(2,4-Dioxotetrahydropyrimidin-1(2H)-yl)-2-fluoro-N—(S-((4-(4-(5-fluoro-3-(2-fluoro-4-(2-hydroxypropan-2-yl)benzamido)-2-methylphenyl)-7H-pyrrolo[2,3-d]pyrimidin-6-yl)benzyl)amino)pentyl)-4-methylbenzamide]
2 nM	1.1%	COc1ccc(C(=O)N2CCC3(CC2)CCN(C(C)(C)Cc2ccc(-c4cc5c(-c6cc(F)cc(NC(=O)c7ccc(C(C)(C)O)cc7F)c6C)ncnc5[nH]4)cc2)CC3)cc1N1CCC(=O)NC1=O [Compound 20, N-(3-(6-(4-(2-(9-(3-(2,4-Dioxotetrahydropyrimidin-1(2H)-yl)-4-methoxybenzoyl)-3,9-diazaspiro[5.5]undecan-3-yl)-2-methylpropyl)phenyl)-7H-pyrrolo[2,3-d]pyrimidin-4-yl)-5-fluoro-2-methylphenyl)-2-fluoro-4-(2-hydroxypropan-2-yl)benzamide]
3.9 nM	1.7%	COc1ccc(C(=O)N2CCC(OC3CCN(CCc4ccc(-c5cc6c(-c7cc(F)cc(NC(=O)c8ccc(C(C)(C)O)cc8F)c7C)ncnc6[nH]5)cc4)CC3)CC2)cc1N1CCC(=O)NC1=O [Compound 34, N-(3-(6-(4-(2-(4-((1-(3-(2,4-Dioxotetrahydropyrimidin-1(2H)-yl)-4-methoxybenzoyl)piperidin-4-yl)oxyl)piperidin-1-yl)ethyl)phenyl)-7H-pyrrolo[2,3-d]pyrimidin-4-yl)-5-fluoro-2-methylphenyl)-2-fluoro-4-(2-hydroxypropan-2-yl)benzamide]
235 nM	48.4%	COc1ccc(C(=O)NCCN2CCC3(CC2)CCN(Cc2ccc(-c4cc5c(-c6cc(F)cc(NC(=O)c7ccc(C(C)(C)O)cc7F)c6C)ncnc5[nH]4)cc2)CC3)cc1N1CCC(=O)NC1=O [Compound 44, N-(3-(6-(4-((9-(2-(3-(2,4-dioxotetrahydropyrimidin-1(2H)-yl)-4-methoxybenzamido)ethyl)-3,9-diazaspiro[5.5]undecan-3-yl)methyl)phenyl)-7H-pyrrolo[2,3-d]pyrimidin-4-yl)-5-fluoro-2-methylphenyl)-2-fluoro-4-(2-hydroxypropan-2-yl)benzamide]
0.7 nM	4.1%	Cc1c(NC(=O)c2ccc(C(C)(C)O)cc2F)cc(F)cc1-c1ncnc2[nH]c(-c3ccc(COC4CCN(CCC5CCN(C(=O)c6ccc(F)c(N7CCC(=O)NC7=O)c6)CC5)CC4)cc3)cc12 [Compound 6, N-(3-(6-(4-(((1-(2(1-(3-(2,4-dioxotetrahydropyrimidin-1(2H)-yl)-4-fluorobenzoyl)piperidin-4-yl)ethyl)piperidin-4-yl)oxyl)methyl)phenyl)-7H-pyrrolo[2,3-d]pyrimidin-4-yl)-5-fluoro-2-methylphenyl)-2-fluoro-4-(2-hydroxypropan-2-yl)benzamide]
2.6 nM	5.5%	COc1ccc(C(=O)N2CCC(OC3CCN(Cc4ccc(-c5cc6c(-c7cc(F)cc(NC(=O)c8ccc(C(C)(C)O)cc8F)c7C)ncnc6[nH]5)cc4)CC3)CC2)cc1N1CCC(=O)NC1=O [Compound 8, N-(3-(6-(4-((4-((1-(3-(2,4-dioxotetrahydropyrimidin-1(2H)-yl)-4-methoxybenzoyl)piperidin-4-yl)oxyl)piperidin-1-yl)methyl)phenyl)-7H-pyrrolo[2,3-d]pyrimidin-4-yl)-5-fluoro-2-methylphenyl)-2-fluoro-4-(2-hydroxypropan-2-yl)benzamide]
